Entries after “also recorded” stand apart in the source; their conditions may differ. Marks after values point to notes of the source that are not given here.
Legend:
[1] = system: C57BL/6 mice with UUO surgical ligation; test: Example 1: UUO mice, renal function evaluation (plasma BUN, creatinine); type: in vivo; conditions: for Reduction in BUN compared to vehicle, in words, post-test not stated: Example 1 text and conclusions, Bemithyl 200, Repirinast 30, Bromantane 20, Telmisartan 5 mg/kg PO QD
Method: (§1) Male 9-12 week old C57BL/6 mice of 23-25 grams body weight were used. All mice were acclimated for a minimum of 5 days prior to the start of the study and housed individually in microisolators throughout the study in a 12:12 light-dark cycle on a standard maintenance mouse chow diet (Harlan Teklad 2018) with food and water given ad libitum. Prior to surgery, all mice were weighed for baseline body weight.
(§2) The UUO surgical intervention was performed according to previously described methods known in the art (Le Meur Y et al., Macrophage accumulation at a site of renal inflammation is dependent on the M-CSF/c-fms pathway, J Leukocyte Biol., 72:530-537; 2002).
(§3) All mice were first anesthetized by intraperitoneal injection with a rodent cocktail (ketamine 10 mg/mL and Xyaline 1 mg/mL) in normal saline (10 μL/g body weight). Pedal reflex and movement of the vibrissae were used to determine the state of unconsciousness. A state of unconsciousness was confirmed after a period of about 5 minutes in all animals. All mice were then shaved on the left side of the abdomen. The shaved area was first swabbed with iodine and then swabbed with alcohol. A vertical incision was made through the skin with a #22 scalpel and the skin was then retracted. A further incision of about 2.5 cm was then made through the peritoneum avoiding any major blood vessels. The peritoneum was then retracted and the left kidney was exposed.
(§4) The left kidney was then brought to the surface by hooking the ureter directly beneath the kidney with sterile forceps and gently manipulating the kidney upward. The ureter was ligated at two points directly below the kidney with 5-0 surgical silk with excess suture cut away and discarded post-ligation. The kidney was then gently placed back to its correct anatomical position and the abdomen was lavaged with 1 mL sterile saline to replenish fluid loss. The peritoneum and then skin were sutured with 5-0 Mersilene, and the incision site was gently wiped with iodine. All mice were then placed individually in clean cages that were set on top of a thermal blanket until recovery at about 30-60 minutes later. In some examples, sham surgery was performed as a control by following all steps of the UUO surgical intervention procedure except ligation.
(§5) Following surgery, the mice were divided into 14 individual study groups of 8 mice each and, following post-surgical recovery, administered a once-daily oral treatment for 14 days. The mice in 12 of the 14 study groups (hereafter known as “treatment groups”) had all received the UUO surgical ligation and were treated individually with a distinct pharmacologic compound as set out in Table 1. The mice in 2 of the 14 study groups were treated individually with a pharmaceutically acceptable vehicle with no active ingredient. The pharmaceutically acceptable vehicle in all groups was 0.5% carboxymethyl cellulose (CMC). All mice were sacrificed with CO2 on post-surgical day 15.
The dose selected for the animal studies was determined by taking the maximum known human daily dose, dividing by the average weight of an adult (˜60-70 kg) to get a human mg/kg dose. Then that number was multiplied by 12 to convert to a mouse dose based on conventional dosing tables. See Nair and Jacob, J Basic Clin Pharm March 2016-May 2016, 7(2):27-31.
Serum collection: A blood sample was then collected from all mice and plasma analyzed for urea nitrogen and creatinine. Plasma was stored at −80° C. for possible future analysis.
Renal Function Evaluation: Renal function and disease progression was evaluated by BUN (blood urea nitrogen) as previously described. The BUN of each study group consisted of the BUN average of all mice in each study group.

[2] = system: C57BL/6 mice with UUO surgical ligation; test: Example 2: UUO mice, kidney weight evaluation; type: in vivo; conditions: group mean, UUO, female C57BL/6 mice, PO QD days 1-14; for Excised Left Kidney: ligated kidney; for Right Kidney (g): unligated kidney
Method: (§6) In this example, healthy young female C57BL/6 mice were used for the study. At the commencement of the study, mice were between 9-12 weeks of age, weighing 23-25 g. All the mice were obtained from Charles River Laboratories.
(§7) The mice were maintained in a controlled environment with a temp 70-72° F., humidity 30-70%, with a photo cycle of 12 hours of light and 12 hours of dark. They were provided with Harlan Teklad 2018 standard maintenance mouse chow diet and drinking water ad libitium.
(§8) After five days of acclimatization, the mice were grouped according to their body weight. There were ten groups of ten mice each. Nine groups of ten mice each underwent UUO as described above and the other group of ten mice underwent a sham procedure to serve as a no-surgery control.
(§9) Following surgery, the mice were divided into 10 individual study groups of 10 mice each and, following post-surgical recovery, administered a once-daily oral treatment for 14 days. The mice in 8 of the 10 study groups had all received the UUO surgical ligation and were treated individually with a distinct pharmacologic compound as set out in Table 6. The mice in 2 of the 10 study groups were treated individually with a pharmaceutically acceptable vehicle with no active ingredient. The pharmaceutically acceptable vehicle in all groups was 0.5% carboxymethyl cellulose (CMC). All mice were sacrificed with CO2 on post-surgical day 15.
(§10) The dose selected for the animal studies was determined by taking the maximum known human daily dose, dividing by the average weight of an adult (˜60-70 kg) to get a human mg/kg dose. That number was multiplied by 12 to convert to a mouse dose based on conventional dosing tables. See Nair and Jacob, J Basic Clin Pharm March 2016-May 2016, 7(2):27-31.
Kidney weight: The UUO was then examined in situ to ensure that the surgical ligation ties remained patent. Both the ligated (UUO) and non-ligated kidneys were removed for analysis. Weights of both kidneys were measured using a laboratory balance.
The data are presented as the mean obtained from Microsoft Excel or GraphPad Prism version 5.00 for Windows (GraphPad Software, San Diego California USA). Data were analyzed using two-way ANOVA using Bonferroni and Tamhane post-tests. Differences between groups were considered significant at p<0.05.
Kidney Weight Evaluation: Kidney weight, which indicates functional and pathological changes in the kidney, was evaluated by measuring the weight of both the ligated (UUO) and non-ligated kidneys as previously described. The ligated and non-ligated kidney weights of each study group consisted of the respective kidney weight averages of all mice in each study group.

[3] = Example 2: UUO mice, mean body weight change following surgery; type: in vivo, C57BL/6 mice; conditions: for Mean Body Weight Change Following Surgery, Day 1 / Mean Body Weight Change Following Surgery, Day 4 / Mean Body Weight Change Following Surgery, Day 7 / Mean Body Weight Change Following Surgery, Day 10 / Mean Body Weight Change Following Surgery, Day 14: UUO, female C57BL/6 mice, PO QD days 1-14; for Body weight course after surgery, in words: Example 2
Method: as §6, §7, §8, §9, §10
Body weight: The body weights were measured on days 1, 4, 7, 10 and 14 using a laboratory balance.
Body weights were measured on post-surgical days 1, 4, 7, 10 and 14 as previously described. The mean body weight change of each study group was calculated using the body weight average of all mice in each study group.

[4] = Example 1: UUO mice, mean body weight change following surgery; type: in vivo; conditions: Example 1, mostly post-surgical day 14, male C57BL/6 mice, PO QD days 1-14, doses of Table 1
Method: as §1, §2, §3, §4, §5
The dose selected for the animal studies was determined by taking the maximum known human daily dose, dividing by the average weight of an adult (˜60-70 kg) to get a human mg/kg dose. […]
Body weight: The body weights were measured on days 1, 2, 5, 8, 10 and 14 using a laboratory balance.
Body weights were measured on post-surgical days 1, 2, 5, 8, 10 and 14 as previously described. The mean body weight change of each study group was calculated using the body weight average of all mice in each study group.

[5] = ligated kidney drained, mg/kg: Telmisartan 3, Bemithyl 200, Repirinast 30, Telmisartan+Bemithyl 3+200, Telmisartan+Repirinast 3+30, Cenicriviroc 40, Bromantane 40
[6] = mg/kg: Telmisartan 3, Bemithyl 200, Repirinast 30, Telmisartan+Bemithyl 3+200, Telmisartan+Repirinast 3+30, Cenicriviroc 40, Bromantane 40

SMILES	Reduction in BUN compared to vehicle, in words, post-test not stated [1]	Excised Left Kidney [2, 6]	Right Kidney (g) [2, 6]	Mean Body Weight Change Following Surgery, Day 1 [3, 6]	Mean Body Weight Change Following Surgery, Day 4 [3, 6]	Mean Body Weight Change Following Surgery, Day 7 [3, 6]	Mean Body Weight Change Following Surgery, Day 10 [3, 6]	Mean Body Weight Change Following Surgery, Day 14 [3, 6]	other results
CCCc1nc2c(C)cc(-c3nc4ccccc4n3C)cc2n1Cc1ccc(-c2ccccc2C(=O)O)cc1 [Telmisartan, 2-(4-{[4-Methyl-6-(1-methyl-1H-1,3-benzodiazol-2-yl)-2-propyl-1H-1,3-benzodiazol-1-yl]methyl}phenyl)benzoic acid]	did not show a significant reduction; also recorded: the former was not statistically significant	0.411 g	0.1263* g	0 g	-0.24 g	0.39 g	0.45 g	0.58 g	Drained Left Kidney (g) [2, 5]: 0.1853* g
Cc1ccc2c([nH]c(=O)c3c(=O)cc(C(=O)OCCC(C)C)oc32)c1C [Repirinast, 3-methylbutyl 7,8-dimethyl-4,5-dioxo-5,6-dihydro-4H-pyrano[3,2-c]quinoline-2-carboxylate]	significant reductions in BUN compared to vehicle	0.412 g	0.1468* g	0 g	0.34 g	0.35 g	0.83 g	0.86 g	Mean body weight change, comparison with control groups, in words [4]: greater decrease in body weight; BUN in comparison to control groups, in words ([1]; Example 1, UUO, male C57BL/6 mice, PO QD days 1-14, doses of Table 1): less renal dysfunction and disease progression than the positive control treatment; also recorded: decreased in comparison to the sham surgery control group; Reduction in levels of BUN compared to vehicle, significance in words ([1]; p<0.05, Tamhane post-test, Example 1, Repirinast 30, Bemithyl 200, Bromantane 20 mg/kg PO QD): significant reductions in the levels of BUN; Drained Left Kidney ([2]; ligated kidney drained, Repirinast 90 mg/kg): 0.1648 g; Drained Left Kidney [2, 5]: 0.1808 g; Excised Left Kidney ([2]; Repirinast 90 mg/kg): 0.3681 g; Right Kidney (g) ([2]; Repirinast 90 mg/kg): 0.1378* g; Mean Body Weight Change Following Surgery, Day 1 ([3]; Repirinast 90 mg/kg): 0 g; Mean Body Weight Change Following Surgery, Day 4 ([3]; Repirinast 90 mg/kg): 0.31 g; Mean Body Weight Change Following Surgery, Day 7 ([3]; Repirinast 90 mg/kg): 0.60 g; Mean Body Weight Change Following Surgery, Day 10 ([3]; Repirinast 90 mg/kg): 0.86 g; Mean Body Weight Change Following Surgery, Day 14 ([3]; Repirinast 90 mg/kg): 1.08 g; Body weight course after surgery, in words ([3]; Repirinast 90 mg/kg PO QD): no initial decrease in body weight; also recorded: appeared to reverse the negative effects of UUO on body weight gain; Body weight course after surgery, in words ([3]; mg/kg PO QD: Repirinast 30, Bemithyl 200, Bromantane 40, Telmisartan+Bemithyl 3+200): no initial decrease in body weight
